Laboratory results reported in patent US20230340011A1 (Asteroid Therapeutics, priority 2022, published 2023).

Experiments:
SREBP-2 [1] = target: T1, SREBP-2 (Homo sapiens (Human), UniProt Q12772); test: SREBP-2 IC50 (category A-D, Tables 1 and 3); format: cell-based; conditions: Table 3, trans-AB examples
LXRβ [2] = target: T2, LXRβ (Homo sapiens (Human), UniProt P55055); test: LXRβ PPI (category A-D, Tables 1 and 3); format: biochemical; conditions: Table 3, trans-AB examples
SREBP-2 [3] = target: T1, SREBP-2; test: In vitro assay SREBP-2: PathHunter U2OS SREBP-2 Nuclear Translocation Cell Line, U18666A-stimulated; format: cell-based; conditions: PathHunter U2OS SREBP-2 nuclear translocation cells, U18666A 10 μM, overnight (16 hours)
LXRβ [4] = target: T2, LXRβ; test: In vitro assay LXRβ: PathHunter NHR CHO cells, LXRβ / Steroid Receptor Co-activator Peptide enzyme fragment complementation; format: cell-based; conditions: PathHunter NHR CHO cells, full-length human LXRβ and SRCP, chemiluminescent signal; read-out: LXRβ PPI
In short: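 Enzyme fragment complementation read-out: CHO cells stably expressing ProLink-tagged full-length human LXRβ plus nuclear enzyme acceptor–SRCP fusion, seeded and held overnight at 37° C. Medium with charcoal-dextran filtered serum; final vehicle 1%. Chemiluminescence measured after signal generation.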

T2 sequence (P55055 whole entry): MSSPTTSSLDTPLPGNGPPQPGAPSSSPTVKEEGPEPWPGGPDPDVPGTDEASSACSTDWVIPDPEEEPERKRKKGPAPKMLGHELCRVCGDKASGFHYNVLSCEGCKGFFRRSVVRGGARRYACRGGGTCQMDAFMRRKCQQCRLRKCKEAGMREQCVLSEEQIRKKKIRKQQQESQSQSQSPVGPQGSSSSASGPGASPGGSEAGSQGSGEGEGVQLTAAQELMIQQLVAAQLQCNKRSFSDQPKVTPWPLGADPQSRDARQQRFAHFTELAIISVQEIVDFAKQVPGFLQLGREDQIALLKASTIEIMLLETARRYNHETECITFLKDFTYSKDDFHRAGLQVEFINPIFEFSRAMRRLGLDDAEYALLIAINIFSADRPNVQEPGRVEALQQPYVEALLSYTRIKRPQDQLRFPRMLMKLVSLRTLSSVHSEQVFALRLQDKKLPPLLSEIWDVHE

IC50 (SREBP-2 [1]) [nM] | LXRβ PPI (LXRβ [2]) | Compound | IC50 (SREBP-2 [3]) [nM] | EC50 (LXRβ [4]) [nM]
< 250 | A (<1 nM to 250 nM) | C[C@H](CC[C@](O)(C1CC1)C(F)(F)F)[C@H]1CC[C@H]2[C@@H]3CC=C4C[C@@H](O)CC[C@]4(C)[C@H]3CC[C@]12C [Example 23, (3S,8S,9S,10R,13R,14S,17R)-17-((2R,5s)-5-cyclopropyl-6,6,6-trifluoro-5-hydroxyhexan-2-yl)-10,13-dimethyl-2,3,4,7,8,9,10,11,12,13,14,15,16,17-tetradecahydro-1H-cyclopenta(a)phenanthren-3-ol] | < 250 | –
250 to 1000 | – | C[C@H](CC[C@@](O)(C1CC1)C(F)(F)F)[C@H]1CC[C@H]2[C@@H]3CC=C4C[C@@H](O)CC[C@]4(C)[C@H]3CC[C@]12C [Example 24, (3S,8S,9S,10R,13R,14S,17R)-17-((2R,5R)-5-cyclopropyl-6,6,6-trifluoro-5-hydroxyhexan-2-yl)-10,13-dimethyl-2,3,4,7,8,9,10,11,12,13,14,15,16,17-tetradecahydro-1H-cyclopenta(a)phenanthren-3-ol] | 250 to 1000 | –
< 250 | B (250 nM-1000 nM) | CC[C@](O)(CC[C@@H](C)[C@H]1CC[C@H]2[C@@H]3CC=C4C[C@@H](O)CC[C@]4(C)[C@H]3CC[C@]12C)C(F)(F)F [Example 22, (3S,8S,9S,10R,13R,14S,17R)-17-((2R,5S)-5-hydroxy-5-(trifluoromethyl)heptan-2-yl)-10,13-dimethyl-2,3,4,7,8,9,10,11,12,13,14,15,16,17-tetradecahydro-1H-cyclopenta(a)phenanthren-3-ol] | 250 to 1000 | –
< 250 | C (1000-10000 nM) | CC[C@@](O)(CC[C@@H](C)[C@H]1CC[C@H]2[C@@H]3CC=C4C[C@@H](O)CC[C@]4(C)[C@H]3CC[C@]12C)C(F)(F)F [Example 21, (3S,8S,9S,10R,13R,14S,17R)-17-((2R,5R)-5-hydroxy-5-(trifluoromethyl)heptan-2-yl)-10,13-dimethyl-2,3,4,7,8,9,10,11,12,13,14,15,16,17-tetradecahydro-1H-cyclopenta(a)phenanthren-3-ol] | < 250 | –
< 250 | D (>10000 nM) | C[C@H](CCC(=O)N1CC[C@@H](CO)O1)[C@H]1CC[C@H]2[C@@H]3CC=C4C[C@@H](O)CC[C@]4(C)[C@H]3CC[C@]12C [Example 42, (R)-4-((3S,8S,9S,10R,13R,14S,17R)-3-hydroxy-10,13-dimethyl-2,3,4,7,8,9,10,11,12,13,14,15,16,17-tetradecahydro-1H-cyclopenta[a]-phenanthren-17-yl)-1-((S)-5-(hydroxymethyl)isoxazolidin-2-yl) pentan-1-one] | 250 to 1000 | –
< 250 | D (>10000 nM) | (R)-4-((3S,8S,9S,10R,13R,14S,17R)-3-hydroxy-10,13-dimethyl-2,3,4,7,8,9,10,11,12,13,14,15,16,17-tetradecahydro-1H-cyclopenta[a]phenanthren-17-yl)-N-methyl-N-propoxypentanamide [Example 12] | – | –
< 250 | B (250 nM-1000 nM) | CCCCON(C)C(=O)CC[C@@H](C)[C@H]1CC[C@H]2[C@@H]3CC=C4C[C@@H](O)CC[C@]4(C)[C@H]3CC[C@]12C [Example 16] | – | 1000 to 10000
– | – | C[C@H](CCC(=O)N1CCN(C(=O)N(C)CC2CC2)CC1)[C@H]1CC[C@H]2[C@@H]3CC=C4C[C@@H](O)CC[C@]4(C)[C@H]3CC[C@]12C [Example 210, N-(cyclopropylmethyl)-4-((R)-4-((3S,8S,9S,10R,13R,14S,17R)-3-hydroxy-10,13-dimethyl-2,3,4,7,8,9,10,11,12,13,14,15,16,17-tetradecahydro-1H-cyclopenta[a]phenanthren-17-yl)pentanoyl)-N-methylpiperazine-1-carboxamide] | < 250 | > 10000

Compound | IC50 (SREBP-2 [1]) [nM] | LXRβ PPI (LXRβ [2]) | IC50 (SREBP-2 [3]) [nM] | EC50 (LXRβ [4]) [nM]
CCC1(O)CCN(C(=O)CC[C@@H](C)[C@H]2CC[C@H]3[C@@H]4CC[C@H]5C[C@@H](O)CC[C@]5(C)[C@H]4[C@@H](O)C[C@]23C)CC1 [Example T7, (R)-4-((3S,5S,8S,9S,10S,11S,13R,14S,17R)-3,11-dihydroxy-10,13-dimethylhexadecahydro-1H-cyclopenta[a]phenanthren-17-yl)-1-(4-ethyl-4-hydroxypiperidin-1-yl)pentan-1-one] | 250 to 1000 | – | – | –
CCON(C)C(=O)CC[C@@H](C)[C@H]1CC[C@H]2[C@@H]3CC=C4C[C@@H](O)CC[C@]4(C)[C@H]3CC[C@]12C [Example 10, (R)—N-ethoxy-4-((3S,8S,9S,10R,13R,14S,17R)-3-hydroxy-10,13-dimethyl-2,3,4,7,8,9,10,11,12,13,14,15,16,17-tetradecahydro-1H-cyclopenta[a]phenanthren-17-yl)-N-methylpentanamide] | < 250 | B (250 nM-1000 nM) | < 250 | –
C=C[C@@](O)(CC[C@@H](C)[C@H]1CC[C@H]2[C@@H]3CC=C4C[C@@H](O)CC[C@]4(C)[C@H]3CC[C@]12C)C(F)(F)F [Example 19, (3S,8S,9S,10R,13R,14S,17R)-17-((2R,5S)-5-hydroxy-5-(trifluoromethyl)hept-6-en-2-yl)-10,13-dimethy12,3,4,7,8,9,10,11,12,13,14,15,16,17-tetradecahydro-1H-cyclopenta[a]phenanthren-3-ol] | < 250 | D (>10000 nM) | < 250 | 1000 to 10000
C[C@H](CC[C@@](O)(C1CCC1)C(F)(F)F)[C@H]1CC[C@H]2[C@@H]3CC=C4C[C@@H](O)CC[C@]4(C)[C@H]3CC[C@]12C [Example 26, (3S,8S,9S,10R,13R,14S,17R)-17-((2R,5R)-5-cyclobutyl-6,6,6-trifluoro-5-hydroxyhexan-2-yl)-10,13-dimethyl-2,3,4,7,8,9,10,11,12,13,14,15,16,17-tetradecahydro-1H-cyclopenta[a]phenanthren-3-ol] | 250 to 1000 | B (250 nM-1000 nM) | 250 to 1000 | –
C=C[C@](O)(CC[C@@H](C)[C@H]1CC[C@H]2[C@@H]3CC=C4C[C@@H](O)CC[C@]4(C)[C@H]3CC[C@]12C)C(F)(F)F [Example 20, (3S,8S,9S,10R,13R,14S,17R)-17-((2R,5R)-5-hydroxy-5-(trifluoromethyl)hept-6-en-2-yl)-10,13-dimethyl-2,3,4,7,8,9,10,11,12,13,14,15,16,17-tetradecahydro-1H-cyclopenta[a]phenanthren-3-ol] | < 250 | D (>10000 nM) | < 250 | > 10000
C[C@H](CCC(=O)N(C)C)[C@H]1CC[C@H]2[C@@H]3CC[C@H]4C[C@@H](O)CC[C@]4(C)[C@H]3[C@@H](O)C[C@]12C [Example T5, (R)-4-((3S,5S,8S,9S,10S,11S,13R,14S,17R)-3,11-dihydroxy-10,13-dimethylhexadecahydro-1H-cyclopenta[a]phenanthren-17-yl)-N, N-dimethylpentanamide] | 250 to 1000 | – | – | –
